Measurements published in PMC9154192 (PLoS Biology, 2022).
Converted amounts (≈) assume the structure as drawn. “And” between values parts separate entries of the source, which are not always exact repeats. Equal entries are not always repeated. Where two headings read alike, the source gives them in different places.

What was measured:
[1] = type: cell-based; settings: positive control
M. tuberculosis H37Rv = test: microbe, parasite or virus in culture; type: cell-based, Mycobacterium tuberculosis; settings: for MIC: Mycobacterium tuberculosis, H37RV, read-out: MIC; for SI (CC50/MIC): ratio of CC50 for L929 fibroblasts to MIC for strain H37Rv
in vitro = type: cell-based, murine; settings: mouse
Experimental: A549 human pulmonary epithelial cells (KCLB 10185), human embryonic kidney (HEK) 293 cells (KCLB 21573), human THP-1 leukemia cells (KCLB 40202), human neuroblastoma SH-SY5Y cells (KCLB 22266), Murine Raw 264.7 macrophages (KCLB 40071), and L929 murine fibroblasts (KCLB 10001) were purchased from the KCLB (Seoul, Korea). Cytotoxicity testing was performed using the MTT assay and the WST-1 cell viability assay as previously described.

M. tuberculosis H37Ra = test: microbe, parasite or virus in culture; type: cell-based, Mycobacterium tuberculosis; settings: Mycobacterium tuberculosis, H37RA
M. intracellulare = test: microbe, parasite or virus in culture; type: cell-based; settings: Mycobacterium intracellulare
M. xenopi = test: microbe, parasite or virus in culture; type: cell-based; settings: Mycobacterium xenopi
M. marseiliense = test: microbe, parasite or virus in culture; type: cell-based; settings: Mycobacterium
M. phocaicum = test: microbe, parasite or virus in culture; type: cell-based, Mycobacterium phocaicum; settings: Mycolicibacterium phocaicum
M. massiliense = test: microbe, parasite or virus in culture; type: cell-based, Mycobacterium massiliense; settings: Mycobacteroides abscessus
M. avium = test: microbe, parasite or virus in culture; type: cell-based; settings: Mycobacterium avium
M. chitae = test: microbe, parasite or virus in culture; type: cell-based, Mycobacterium chitae; settings: Mycolicibacterium chitae
M. arupense = test: microbe, parasite or virus in culture; type: cell-based, Mycobacterium arupense; settings: Mycolicibacter arupensis
M. heraklionease = test: microbe, parasite or virus in culture; type: cell-based; settings: Mycobacterium
M. neoaurum = test: microbe, parasite or virus in culture; type: cell-based, Mycobacterium neoaurum; settings: Mycolicibacterium neoaurum
M. kyorinense = test: microbe, parasite or virus in culture; type: cell-based; settings: Mycobacterium kyorinense
M. aubagnense = test: microbe, parasite or virus in culture; type: cell-based, Mycobacterium aubagnense; settings: Mycolicibacterium aubagnense
[2] = tested on: clinically isolated MDR, XDR, and TDR M. tuberculosis strains; test: microbe, parasite or virus in culture; type: cell-based; settings: Mycobacterium tuberculosis
M. szulgai = test: microbe, parasite or virus in culture; type: cell-based; settings: Mycobacterium szulgai
M. smegmatis = test: microbe, parasite or virus in culture; type: cell-based, Mycobacterium smegmatis; settings: Mycolicibacterium smegmatis
M. conceptionense = test: microbe, parasite or virus in culture; type: cell-based, Mycobacterium conceptionense; settings: Mycolicibacterium senegalense
M. marinum = test: microbe, parasite or virus in culture; type: cell-based; settings: Mycobacterium marinum
M. goodie = test: microbe, parasite or virus in culture; type: cell-based; settings: Mycobacterium
M. kansasii = test: microbe, parasite or virus in culture; type: cell-based; settings: Mycobacterium kansasii
M. bovis = test: microbe, parasite or virus in culture; type: cell-based; settings: Mycobacterium tuberculosis variant bovis
M. gilvum = test: microbe, parasite or virus in culture; type: cell-based, Mycobacterium gilvum; settings: Mycolicibacterium gilvum
M. colombiense = test: microbe, parasite or virus in culture; type: cell-based; settings: Mycobacterium colombiense
M. fortuitum = test: microbe, parasite or virus in culture; type: cell-based, Mycobacterium fortuitum; settings: Mycolicibacterium fortuitum
M. gordonae = test: microbe, parasite or virus in culture; type: cell-based; settings: Mycobacterium gordonae
M. bolletii = test: microbe, parasite or virus in culture; type: cell-based, Mycobacterium bolletii; settings: Mycobacteroides abscessus
M. peregrinum = test: microbe, parasite or virus in culture; type: cell-based, Mycobacterium peregrinum; settings: Mycolicibacterium peregrinum
M. phlei = test: microbe, parasite or virus in culture; type: cell-based, Mycobacterium phlei; settings: Mycolicibacterium phlei
M. abscessus = test: microbe, parasite or virus in culture; type: cell-based, Mycobacterium abscessus; settings: Mycobacteroides abscessus
intestinal microbiome = test: Gut microbiome, 16s rRNA gene-based metagenomics analysis of feces; type: in vivo, BALB/c mice; settings: 30 mg/kg oral once a day for 7 days, BALB/c mice, feces
Experimental: Six-week-old BALB/c female mice were used for this study (6 mice for each group). Each drug was administered orally at 30 mg/kg once daily for 7 days. Stool was collected, and 16 rRNA gene-based metagenomics analysis was performed. Corn oil was used as the vehicle. The drug-free group received corn oil only. This animal experiment was conducted with the approval of the IACUC of the Soonchunhyang University (approval number: SCH21-0011). Microbiome analysis of collected feces was carried out as previously described with some modifications. Total DNA was extracted from the stool using the QIAamp DNA stool mini kit (Qiagen, Germany) after mechanical disruption using lysing matrix B tubes (MP Biomedicals, USA). V4 region of 16S RNA gene was amplified from extracted DNA with the following primers: forward primer ([…]) and reverse primer ([…]). PCR was performed using the Kappa HiFi hot start kit (KAPA Biosystems, USA) for 16s gene amplification and library preparation. A dsDNA HS assay kit and Qubit 4 fluorimeter (Invitrogen, USA) were used for DNA quantification. After each step, quality was checked using Agilent High Sensitivity DNA Kit and Agilent Bioanalyzer 2100 (Agilent Technologies, USA). Clean-up was performed using AMPure XP beads (Beckman Coulter, UK). The metagenomic library was prepared using a Nextera XT DNA Library Prep Kit (Illumina, USA) and loaded into an iSeq-100 reagent cartridge (Illumina, USA) together with a PhiX Control library (Illumina, USA). A 300-bp paired-end sequencing was performed on an iSeq-100 platform (Illumina, USA). Sequencing data were analyzed using the EzBioCloud server (Chunlab, Korea).

[3] = TA98, 5.0 μg/plate, absence of S9 mix
[4] = TA1537, 80.0 μg/plate, absence of S9 mix
[5] = TA98, 1.0 μg/plate, presence of S9 mix
[6] = TA100, 2.0 μg/plate, presence of S9 mix
[7] = TA1535, 3.0 μg/plate, presence of S9 mix
[8] = TA1537, 3.0 μg/plate, presence of S9 mix
[9] = WP2uvrA (pKM101), 2.0 μg/plate, presence of S9 mix
[10] = TA100, 1.5 μg/plate, absence of S9 mix
[11] = TA1535, 1.5 μg/plate, absence of S9 mix

O=[N+]([O-])c1ccc2c(c1)Cc1ccccc1-2 [2-NF]
Individual revertant colony counts [1, 3]: 705 colonies per plate and 649 colonies per plate
Mean revertant colonies [1, 3]: 677 colonies per plate

COC(=O)c1cc2ccc(O)cc2c2cc(OC)c(OC)cc12 [DPGA4]
MIC (M. tuberculosis H37Rv): > 100 µg/mL
SI (CC50/MIC) (M. tuberculosis H37Rv): <0.3
CC50 (in vitro; L929, MTT assay (Table S1)): 34.9 µg/mL (≈ 112 µM)
CC50 (in vitro; RAW, MTT assay (Table S1)): 37.5 µg/mL (≈ 120 µM)
MIC (M. tuberculosis H37Ra): > 100 µg/mL

CC[C@@H](CO)NCCN[C@@H](CC)CO [EMB, ethambutol]
MIC (M. intracellulare): 3.1 µg/mL (≈ 15.2 µM)
MIC (M. xenopi): 25 µg/mL (≈ 122 µM)
MIC (M. marseiliense): 100 µg/mL (≈ 489 µM)
MIC (M. phocaicum): 0.4 µg/mL (≈ 1.96 µM)
MIC (M. massiliense): 100 µg/mL (≈ 489 µM)
MIC (M. avium): 50 µg/mL (≈ 245 µM)
MIC (M. chitae): 0.2 µg/mL (≈ 0.979 µM)
MIC (M. arupense): 0.4 µg/mL (≈ 1.96 µM)
MIC (M. heraklionease): 100 µg/mL (≈ 489 µM)
MIC (M. neoaurum): 6.3 µg/mL (≈ 30.8 µM)
MIC (M. tuberculosis H37Rv): 1.6 µg/mL (≈ 7.83 µM)
MIC (M. kyorinense): 50 µg/mL (≈ 245 µM)
MIC (M. aubagnense): 50 µg/mL (≈ 245 µM)
MIC ([2]; TDR-1): 6.3 µg/mL (≈ 30.8 µM)
MIC ([2]; TDR-2): 6.3 µg/mL (≈ 30.8 µM)
MIC ([2]; TDR-3): 6.3 µg/mL (≈ 30.8 µM)
MIC (M. szulgai): 3.1 µg/mL (≈ 15.2 µM)
MIC (M. smegmatis): 0.8 µg/mL (≈ 3.92 µM)
MIC (M. conceptionense): 50 µg/mL (≈ 245 µM)
MIC (M. marinum): 3.1 µg/mL (≈ 15.2 µM)
MIC (M. goodie): 0.8 µg/mL (≈ 3.92 µM)
MIC (M. kansasii): 1.6 µg/mL (≈ 7.83 µM)
MIC (M. bovis): 1.6 µg/mL (≈ 7.83 µM)
MIC (M. gilvum): 12.5 µg/mL (≈ 61.2 µM)
MIC (M. colombiense): 6.3 µg/mL (≈ 30.8 µM)
MIC (M. fortuitum): 12.5 µg/mL (≈ 61.2 µM)
MIC (M. gordonae): > 100 µg/mL
MIC (M. bolletii): > 100 µg/mL
MIC (M. peregrinum): 3.1 µg/mL (≈ 15.2 µM)
MIC (M. phlei): 1.6 µg/mL (≈ 7.83 µM)
MIC (M. abscessus): 100 µg/mL (≈ 489 µM)

COC(=O)c1cc2ccc(OC3CCCCC3)cc2c2cc(OC)c(OC)cc12 [DPGA6]
MIC (M. tuberculosis H37Rv): > 100 µg/mL
CC50 (in vitro; L929, MTT assay (Table S1)): > 100 µg/mL
CC50 (in vitro; RAW, MTT assay (Table S1)): > 100 µg/mL
MIC (M. tuberculosis H37Ra): > 100 µg/mL

Nc1c2ccccc2nc2ccccc12 [9-AA]
Individual revertant colony counts [1, 4]: 539 colonies per plate and 571 colonies per plate
Mean revertant colonies [1, 4]: 555 colonies per plate

CCCCOc1ccc2cc(C(=O)OC)c3cc(OC)c(OC)cc3c2c1 [DPGA10]
MIC (M. tuberculosis H37Rv): > 100 µg/mL
SI (CC50/MIC) (M. tuberculosis H37Rv): <0.2
CC50 (in vitro; L929, MTT assay (Table S1)): 21.5 µg/mL (≈ 58.4 µM)
CC50 (in vitro; RAW, MTT assay (Table S1)): > 100 µg/mL
MIC (M. tuberculosis H37Ra): > 100 µg/mL

COC(=O)c1cc2ccc(OCC(C)C)cc2c2cc(OC)c(OC)cc12 [DPGA5]
MIC (M. tuberculosis H37Rv): > 100 µg/mL
SI (CC50/MIC) (M. tuberculosis H37Rv): <0.4
CC50 (in vitro; L929, MTT assay (Table S1)): 40.3 µg/mL (≈ 109 µM)
CC50 (in vitro; RAW, MTT assay (Table S1)): > 100 µg/mL
MIC (M. tuberculosis H37Ra): > 100 µg/mL

CN[C@H](CC(C)C)C(=O)N[C@H]1C(=O)N[C@@H](CC(N)=O)C(=O)N[C@H]2C(=O)N[C@H]3C(=O)N[C@H](C(=O)N[C@H](C(=O)O)c4cc(O)cc(O)c4-c4cc3ccc4O)[C@H](O)c3ccc(c(Cl)c3)Oc3cc2cc(c3O[C@@H]2O[C@H](CO)[C@@H](O)[C@H](O)[C@H]2O[C@H]2C[C@](C)(N)[C@H](O)[C@H](C)O2)Oc2ccc(cc2Cl)[C@H]1O [VAN, vancomycin]
beta set-significance analysis, pair-wise comparison of gut microbiome (intestinal microbiome): significant
difference in phylum or class level taxa compared to drug-free group (intestinal microbiome): significant differences
phylogenetic diversity compared to drug-free control group (intestinal microbiome): significantly decreased

Nc1ccc2cc3ccccc3cc2c1 [2-AA]
Individual revertant colony counts [1, 5]: 402 colonies per plate and 414 colonies per plate
Mean revertant colonies [1, 5]: 408 colonies per plate
Individual revertant colony counts [1, 6]: 555 colonies per plate and 578 colonies per plate
Mean revertant colonies [1, 6]: 567 colonies per plate
Individual revertant colony counts [1, 7]: 96 colonies per plate and 103 colonies per plate
Mean revertant colonies [1, 7]: 100 colonies per plate
Individual revertant colony counts [1, 8]: 193 colonies per plate and 184 colonies per plate
Mean revertant colonies [1, 8]: 189 colonies per plate
Individual revertant colony counts [1, 9]: 409 colonies per plate and 430 colonies per plate
Mean revertant colonies [1, 9]: 420 colonies per plate

CCCCOc1ccc2cc(CO)c3cc(OC)c(OC)cc3c2c1 [DPGA11]
MIC (M. tuberculosis H37Rv): > 100 µg/mL
SI (CC50/MIC) (M. tuberculosis H37Rv): <0.7
CC50 (in vitro; L929, MTT assay (Table S1)): 73.7 µg/mL (≈ 216 µM)
CC50 (in vitro; RAW, MTT assay (Table S1)): > 100 µg/mL
MIC (M. tuberculosis H37Ra): > 100 µg/mL

CCOc1ccc2cc(C(=O)OC)c3cc(OC)c(OC)cc3c2c1 [DPGA7]
MIC (M. tuberculosis H37Rv): > 100 µg/mL
CC50 (in vitro; L929, MTT assay (Table S1)): > 100 µg/mL
CC50 (in vitro; RAW, MTT assay (Table S1)): > 100 µg/mL
MIC (M. tuberculosis H37Ra): > 100 µg/mL

[N-]=[N+]=[N-].[Na+] [SA]
Individual revertant colony counts [1, 10]: 734 colonies per plate and 732 colonies per plate
Mean revertant colonies [1, 10]: 733 colonies per plate
Individual revertant colony counts [1, 11]: 588 colonies per plate and 535 colonies per plate
Mean revertant colonies [1, 11]: 562 colonies per plate

CCCCOc1ccc2cc(CN3C(=O)CC[C@@H]3C(=O)OC)c3cc(OC)c(OC)cc3c2c1 [PP2R]
MIC (M. tuberculosis H37Rv): > 100 µg/mL
MIC (M. tuberculosis H37Ra): > 100 µg/mL

COC(=O)[C@H]1CCC(=O)N1Cc1cc2ccc(OC)cc2c2cc(OC)c(OC)cc12 [PP1R]
MIC (M. tuberculosis H37Rv): > 100 µg/mL
MIC (M. tuberculosis H37Ra): > 100 µg/mL

COC(=O)[C@H]1CCC(=O)N1Cc1cc2ccc(OCc3ccccc3)cc2c2cc(OC)c(OC)cc12 [PP3R, Methyl (R)-1-{[3-(Benzyloxy)-6,7-dimethoxy-9-phenanthryl]methyl}-5-oxopyrrolidine-2-carboxylate]
MIC (M. tuberculosis H37Rv): > 100 µg/mL
MIC (M. tuberculosis H37Ra): > 100 µg/mL
